Reference: ChEMBL document CHEMBL5126667, “Tigliane-Type Diterpene Esters from the Fruits of Shirakiopsis indica and Their Anti-HIV Activity” (J Nat Prod, 2022)

What was measured:
[1] = test system: Human immunodeficiency virus; assay: Antiviral activity against HIV NL4-3 infected in MT-4 cells assessed as viral replication measured after 4 days by p24-ELISA; type: functional, organism-based; conditions: Human immunodeficiency virus 1, NL4-3, MT4, 96 h
[2] = Therapeutic index, ratio of cytotoxicity against human MT4 cells to antiviral activity against HIV NL4-3; type: toxicity, cell-based; conditions: read-out: TI

| SMILES | EC50 [1] [nM] | selectivity ratio [2] |
| --- | --- | --- |
| CNc1ccccc1C(=O)O[C@@H]1[C@@H](C)[C@@]2(O)[C@@H](C=C(CO)C[C@]3(O)C(=O)C(C)=C[C@@H]23)[C@@H]2C(C)(C)[C@]12OC(C)=O | 44 | 5290 |
| CCC/C=C/C=C/C=C\C(=O)O[C@@H]1[C@@H](C)[C@]2(O)[C@@H]3C=C(C)C(=O)[C@H]3CC(CO)=C[C@H]2[C@@H]2C(C)(C)[C@]12OC(C)=O | 130 | 161 |
| CNc1ccccc1C(=O)O[C@@H]1[C@@H](C)[C@]2(O)[C@@H]3C=C(C)C(=O)[C@H]3CC(CO)=C[C@H]2[C@@H]2C(C)(C)[C@]12OC(C)=O [SAPINTOXIN A] | 7.4 | 1100 |
| Cc1cn([C@H]2C[C@H](N=[N+]=[N-])[C@@H](CO)O2)c(=O)[nH]c1=O [ZIDOVUDINE] | 20 | > 22 |
